Read-outs that look alike come from different tables or passages of the source.
Columns and labels:
[1] = system: tubulin isolated from calf brain; type: biochemical
[2] = system: Pat-21 breast carcinoma; design: species or system nude mice; conditions: mouse, in vivo
[3] = system: Pat-7 human ovarian carcinoma
[4] = in vivo; conditions: Balb/c nu/nu, mouse
[5] = Water solubility
[6] = In vivo antitumor testing, Pat-26 xenograft; conditions: Balb/c nu/nu, mouse, in vivo, iv
[7] = system: Pat-26 human pancreatic carcinoma; assay: In vivo antitumor testing, Pat-26 xenograft
[8] = In vivo antitumor testing, HCT116/VM46 xenograft; conditions: Balb/c nu/nu, mouse, in vivo, iv
[9] = system: HCT116/VM46 human colon carcinoma xenograft; assay: In vivo antitumor testing, HCT116/VM46 xenograft
[10] = system: panel of tumor cell lines; assay: Cytotoxicity assay (tetrazolium-based colorimetric), panel of tumor cell lines; conditions: 72 h, read-out: IC50 (median cytotoxic concentration)
[11] = system: HCT116/VM46 cells; type: cell-based, human
[12] = system: A2780Tax ovarian carcinoma xenograft (mutated tubulin); design: species or system nude mice; conditions: mouse, in vivo
[13] = paclitaxel, results obtained in separate studies

C/C(=C\c1csc(CN)n1)[C@@H]1C[C@@H]2O[C@]2(C)CCC[C@H](C)[C@H](O)[C@@H](C)C(=O)C(C)(C)[C@@H](O)CC(=O)O1 (relative stereo) [BMS-310705, [1S-[1R*,3R*(E),7R*,10S*,11R*,12R*,16S*]]-7,11-dihydroxy-8,8,10,12,16-pentamethyl-3-[1-methyl-2-(2-aminomethyl-4-thiazolyl)ethenyl]-4,17-dioxabicyclo[14.1.0]heptadecane-5,9-dione]
Polymerization Potency, EC0.01 [1]: 7.4 µM
Ratio of Polymerization Potency of Analog/Paclitaxel [1]: 1.7
tubulin polymerization potency relative to paclitaxel (fold more potent) [1]: about 2.5 fold
LCK (gross log cell kill) [2]: >4.1
gross log cell kill (LCK) ([3]; BMS-310705 (PO), PO, q4dx3 at OD/MTD 90 mg/kg, Expt. 18): 2.4
LCK (gross log cell kill) ([3]; BMS-310705, IV, q4dx3 at OD 8 mg/kg, Expt. 14): 2.4
antitumor activity given orally compared with IV administration (in words) ([3]; PO vs IV): equivalent to that produced by IV drug administration
oral antitumor activity (in words) ([3]; PO, every 4 days x 3 schedule, FIG. 4): highly active orally
MTD ([4]; iv): 8 mg/kg
MTD ([4]; po, pH 8): 90 mg/kg
water solubility (in words) [5]: highly water-soluble
MTD [6]: 10 mg/kg
LCK (gross log cell kill) ([7]; BMS-310705, IV, q4dx3 at OD 10 mg/kg, Expt. 968): 1.2
MTD [8]: 7.5 mg/kg
LCK (gross log cell kill) ([9]; BMS-310705, IV, q4dx3 at OD 7.5 mg/kg, Expt. 40): 1.5
IC50 [10]: 0.0009 to 0.0035 µM

C/C(=C\c1csc(C)n1)[C@@H]1C[C@@H]2O[C@@H]2CCC[C@H](C)[C@H](O)[C@@H](C)C(=O)C(C)(C)[C@@H](O)CC(=O)O1 [BMS-212188, Epothilone A]
Ratio of Polymerization Potency of Analog/Paclitaxel [1]: 0.4
Polymerization Potency, EC0.01 ([1]; concentration inducing initial slope of 0.01 OD/minute): 2.0 µM

CC(=O)O[C@H]1C(=O)[C@@]2(C)[C@H]([C@H](OC(=O)c3ccccc3)[C@]3(O)C[C@H](OC(=O)[C@H](O)[C@@H](NC(=O)c4ccccc4)c4ccccc4)C(C)=C1C3(C)C)[C@]1(OC(C)=O)CO[C@@H]1C[C@@H]2O [Paclitaxel, paclitaxel, reference compound]
ratio of concentration (R/S or resistance ratio) to inhibit cell growth by 50% [11]: 155 fold
LCK (gross log cell kill) [12]: 0.8
LCK (gross log cell kill) [2]: 0.3
LCK (gross log cell kill) [3, 13]: 0.8
LCK (gross log cell kill) [7, 13]: 0.4
LCK (gross log cell kill) [9, 13]: 0.55

Epothilone B [BMS-205535]
Polymerization Potency, EC0.01 [1]: 1.8 µM
Ratio of Polymerization Potency of Analog/Paclitaxel [1]: 0.3

Source: US6727276B2, “Epothilone derivatives for the treatment of refractory tumors” (Bristol-Myers Squibb Company, priority 2001, dated 2004)
